Like-named read-outs stand apart in the source and are kept apart here.
Legend:
[1] = test system: OVCAR-3 xenograft; conditions: 50 mg/kg p.o. QD for 28 days, day 45; cited from earlier work
[2] = test system: 44 tumor cell lines; conditions: matched 44 cell line panel; cited from earlier work
[3] = Liver microsome stability; type: in vitro ADME; conditions: rat, liver microsomes, pH 7.4
[4] = Liver microsome stability; type: in vitro ADME; conditions: dog, liver microsomes, pH 7.4
[5] = test system: OVCAR-3 xenograft; experiment: OVCAR-3 xenograft model; type: in vivo, BALB/c nude mice; conditions: 6.3 mg/kg p.o. QD
[6] = Pharmacokinetics in mice; conditions: plasma, 10 mg/kg p.o.
[7] = test system: CEREP BioPrint (P22-p) panel; experiment: CEREP BioPrint; type: binding; conditions: 10 μM
[8] = target: PI3Kβ (Homo sapiens, UniProt P42338); experiment: DiscoverX KdELECT; conditions: Inhibitor binding constant Kd PI3Kβ, second PI3K column of Table S2
[9] = target: PI3Kα (Homo sapiens, UniProt P42336); experiment: DiscoverX KdELECT; conditions: Inhibitor binding constant Kd PI3Kα, first PI3K column of Table S2
[10] = test system: 66 cancer cell lines; experiment: NTRC Oncolines proliferation, panel mean; type: cell-based; conditions: read-out: mean half-maximal growth inhibition (GI50)
[11] = Liver microsome stability; type: in vitro ADME; conditions: human, liver microsomes, pH 7.4
[12] = test system: protein and lipid kinases (KINOMEScan panel); experiment: KINOMEScan panel selectivity; type: binding; conditions: 10 μM
[13] = target: PI3Kγ (Homo sapiens, UniProt P48736); experiment: DiscoverX KdELECT; conditions: Inhibitor binding constant Kd PI3Kγ, fourth PI3K column of Table S2
[14] = test system: 44 tumor cell lines; experiment: NTRC Oncolines proliferation, panel mean; type: cell-based; conditions: 4-4 cell
[15] = target: T1, PI3Kδ (Homo sapiens, UniProt O00329); experiment: DiscoverX KdELECT; conditions: Inhibitor binding constant Kd PI3Kδ, third PI3K column of Table S2
T1 sequence (O00329 1-1044): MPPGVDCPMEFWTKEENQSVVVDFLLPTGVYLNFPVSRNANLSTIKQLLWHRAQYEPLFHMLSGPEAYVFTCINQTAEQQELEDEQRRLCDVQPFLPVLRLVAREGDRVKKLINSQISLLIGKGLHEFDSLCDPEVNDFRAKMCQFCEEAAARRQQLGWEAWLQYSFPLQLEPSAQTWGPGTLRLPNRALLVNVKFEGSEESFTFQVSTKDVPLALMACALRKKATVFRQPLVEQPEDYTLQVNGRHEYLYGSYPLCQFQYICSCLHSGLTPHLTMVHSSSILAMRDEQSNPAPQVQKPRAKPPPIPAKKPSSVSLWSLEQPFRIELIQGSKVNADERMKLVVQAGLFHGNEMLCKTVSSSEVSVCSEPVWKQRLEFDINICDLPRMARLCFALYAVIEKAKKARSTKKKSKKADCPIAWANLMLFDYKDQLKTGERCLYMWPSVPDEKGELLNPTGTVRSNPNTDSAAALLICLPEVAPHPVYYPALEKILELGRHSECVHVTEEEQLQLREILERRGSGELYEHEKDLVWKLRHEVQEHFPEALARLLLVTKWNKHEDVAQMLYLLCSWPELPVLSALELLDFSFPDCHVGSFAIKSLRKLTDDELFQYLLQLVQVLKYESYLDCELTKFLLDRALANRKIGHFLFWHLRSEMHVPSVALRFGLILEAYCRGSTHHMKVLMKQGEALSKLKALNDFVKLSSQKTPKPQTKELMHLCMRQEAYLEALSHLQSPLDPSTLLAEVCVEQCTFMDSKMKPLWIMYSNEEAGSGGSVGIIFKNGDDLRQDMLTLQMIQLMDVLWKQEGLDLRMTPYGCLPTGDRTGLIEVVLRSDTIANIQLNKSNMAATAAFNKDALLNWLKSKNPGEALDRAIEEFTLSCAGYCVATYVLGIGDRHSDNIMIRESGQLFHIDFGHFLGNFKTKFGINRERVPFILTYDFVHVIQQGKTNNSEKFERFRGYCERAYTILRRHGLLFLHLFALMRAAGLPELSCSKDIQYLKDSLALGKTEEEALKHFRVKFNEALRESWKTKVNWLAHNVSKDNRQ

Sequence of PI3Kα (P42336 whole entry): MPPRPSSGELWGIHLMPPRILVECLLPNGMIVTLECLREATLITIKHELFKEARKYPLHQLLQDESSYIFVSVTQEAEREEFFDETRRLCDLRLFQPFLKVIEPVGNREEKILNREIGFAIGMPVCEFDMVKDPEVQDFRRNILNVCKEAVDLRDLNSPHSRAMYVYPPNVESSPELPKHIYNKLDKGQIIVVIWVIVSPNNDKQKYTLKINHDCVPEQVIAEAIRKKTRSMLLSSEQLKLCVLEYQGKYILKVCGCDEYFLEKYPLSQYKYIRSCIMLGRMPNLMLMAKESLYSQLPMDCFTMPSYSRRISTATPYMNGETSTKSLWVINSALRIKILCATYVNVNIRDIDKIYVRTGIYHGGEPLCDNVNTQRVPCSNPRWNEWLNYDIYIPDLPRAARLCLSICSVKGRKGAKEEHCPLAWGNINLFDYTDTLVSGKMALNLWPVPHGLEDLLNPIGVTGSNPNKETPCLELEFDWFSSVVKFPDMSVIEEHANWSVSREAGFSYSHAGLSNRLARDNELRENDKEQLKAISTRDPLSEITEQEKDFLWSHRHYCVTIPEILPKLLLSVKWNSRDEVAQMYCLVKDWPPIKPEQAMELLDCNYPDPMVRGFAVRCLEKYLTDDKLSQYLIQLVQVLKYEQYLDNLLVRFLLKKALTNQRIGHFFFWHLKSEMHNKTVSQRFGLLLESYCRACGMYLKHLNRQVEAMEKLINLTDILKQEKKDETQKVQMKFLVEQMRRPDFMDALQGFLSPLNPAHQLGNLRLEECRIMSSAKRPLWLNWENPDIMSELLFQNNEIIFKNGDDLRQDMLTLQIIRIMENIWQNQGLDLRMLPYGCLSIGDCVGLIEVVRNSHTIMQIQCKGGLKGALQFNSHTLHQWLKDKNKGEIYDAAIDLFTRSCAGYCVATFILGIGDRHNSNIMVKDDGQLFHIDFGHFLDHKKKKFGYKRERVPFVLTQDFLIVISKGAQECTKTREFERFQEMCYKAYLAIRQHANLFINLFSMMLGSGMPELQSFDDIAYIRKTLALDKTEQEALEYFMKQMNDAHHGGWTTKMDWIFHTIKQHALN
Sequence of PI3Kγ (P48736 whole entry): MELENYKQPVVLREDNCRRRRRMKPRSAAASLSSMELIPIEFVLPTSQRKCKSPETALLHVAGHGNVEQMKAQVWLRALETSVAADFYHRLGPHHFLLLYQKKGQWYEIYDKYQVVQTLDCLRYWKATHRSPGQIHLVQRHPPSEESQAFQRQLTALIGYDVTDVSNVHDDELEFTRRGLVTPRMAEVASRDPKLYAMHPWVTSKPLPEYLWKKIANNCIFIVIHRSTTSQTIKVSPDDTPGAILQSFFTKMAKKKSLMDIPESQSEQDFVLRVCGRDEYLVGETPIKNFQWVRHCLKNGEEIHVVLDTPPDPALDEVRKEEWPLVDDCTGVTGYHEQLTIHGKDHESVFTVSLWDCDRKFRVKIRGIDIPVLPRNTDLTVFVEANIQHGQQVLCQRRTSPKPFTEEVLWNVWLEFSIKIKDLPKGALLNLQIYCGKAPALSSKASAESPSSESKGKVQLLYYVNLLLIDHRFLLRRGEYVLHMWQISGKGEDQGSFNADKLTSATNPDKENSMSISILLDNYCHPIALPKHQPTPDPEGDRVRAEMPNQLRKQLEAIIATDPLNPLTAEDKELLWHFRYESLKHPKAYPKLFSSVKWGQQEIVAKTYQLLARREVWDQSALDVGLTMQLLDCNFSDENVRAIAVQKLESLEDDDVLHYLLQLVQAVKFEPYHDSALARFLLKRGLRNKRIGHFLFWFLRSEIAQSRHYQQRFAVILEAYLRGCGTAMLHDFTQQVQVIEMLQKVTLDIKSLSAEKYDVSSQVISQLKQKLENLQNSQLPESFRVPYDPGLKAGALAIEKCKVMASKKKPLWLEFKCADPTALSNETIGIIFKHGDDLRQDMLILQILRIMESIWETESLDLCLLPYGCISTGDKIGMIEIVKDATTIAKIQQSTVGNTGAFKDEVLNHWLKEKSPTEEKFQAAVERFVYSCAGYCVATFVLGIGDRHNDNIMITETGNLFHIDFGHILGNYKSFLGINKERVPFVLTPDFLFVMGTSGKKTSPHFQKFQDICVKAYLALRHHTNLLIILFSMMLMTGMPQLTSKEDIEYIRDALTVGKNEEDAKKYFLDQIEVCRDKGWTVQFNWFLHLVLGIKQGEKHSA
Sequence of PI3Kβ (P42338 whole entry): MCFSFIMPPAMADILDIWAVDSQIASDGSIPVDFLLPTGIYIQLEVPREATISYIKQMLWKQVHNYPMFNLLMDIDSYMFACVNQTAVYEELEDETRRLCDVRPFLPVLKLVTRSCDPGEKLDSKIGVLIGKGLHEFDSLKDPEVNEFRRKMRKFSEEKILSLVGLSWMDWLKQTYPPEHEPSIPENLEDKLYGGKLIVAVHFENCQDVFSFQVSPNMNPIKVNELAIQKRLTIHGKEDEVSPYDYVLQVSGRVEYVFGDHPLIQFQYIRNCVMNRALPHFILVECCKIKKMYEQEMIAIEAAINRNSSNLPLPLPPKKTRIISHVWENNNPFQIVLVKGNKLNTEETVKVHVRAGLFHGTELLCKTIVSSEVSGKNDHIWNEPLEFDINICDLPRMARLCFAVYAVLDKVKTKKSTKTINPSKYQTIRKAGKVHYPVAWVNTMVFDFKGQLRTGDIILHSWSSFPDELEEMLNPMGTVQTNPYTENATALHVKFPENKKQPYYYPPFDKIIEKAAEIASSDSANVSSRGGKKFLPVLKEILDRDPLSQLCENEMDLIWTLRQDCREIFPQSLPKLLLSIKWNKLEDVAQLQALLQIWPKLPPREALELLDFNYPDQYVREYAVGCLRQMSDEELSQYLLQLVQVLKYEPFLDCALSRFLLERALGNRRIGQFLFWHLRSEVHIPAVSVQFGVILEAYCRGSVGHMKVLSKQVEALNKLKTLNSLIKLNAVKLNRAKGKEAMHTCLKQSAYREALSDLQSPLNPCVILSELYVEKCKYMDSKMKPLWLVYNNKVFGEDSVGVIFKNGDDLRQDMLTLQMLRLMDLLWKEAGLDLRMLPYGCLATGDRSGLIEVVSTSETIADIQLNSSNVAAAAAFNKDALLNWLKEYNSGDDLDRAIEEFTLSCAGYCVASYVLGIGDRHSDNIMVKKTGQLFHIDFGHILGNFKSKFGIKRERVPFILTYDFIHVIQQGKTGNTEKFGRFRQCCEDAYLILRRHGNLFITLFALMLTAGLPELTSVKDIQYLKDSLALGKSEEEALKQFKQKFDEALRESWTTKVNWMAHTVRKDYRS

**Q.** With `Nc1cc(C(F)(F)F)c(-c2nc(N3CCOCC3)nc(N3CCOCC3)n2)cn1` [PQR309 (1), 5-(4,6-Dimorpholino-1,3,5-triazin-2-yl)-4-(trifluoromethyl)pyridin-2-amine] as the compound, how does the mean tumor size [1] read?
**A.** 571 mm^3

**Q.** And the GI50 [2]?
**A.** ~1000 nM

**Q.** Which results are given for `Nc1ncc(-c2nc(N3CCOCC3)nc(N3CCOCC3)n2)c(C(F)F)n1` [PQR514 (4)]?
**A.** remaining at 0.5 h, 1 µM [3]: 109 ± 10.7%; remaining at 0.5 h, 1 µM [4]: 92.7 ± 0.2%; body weight / tolerability [5]: no significant body weight loss was observed; tumor weight analysis vs vehicle ([5]; day 45): significantly inhibited tumor growth; Cl [6]: 15.6 mL/min/kg; off-target interactions [7]: With the exception of human PDE3A (phosphodiesterase 3A), no or very weak interactions were detected; Kd [8]: < 7 nM; Kd [9]: < 7 nM; GI50 [10]: 250 nM; remaining at 0.5 h, 1 µM [11]: 87.2 ± 3.5%; interference with protein kinase activities [12]: negligible interference with protein kinase activities; Kd [13]: < 7 nM; GI50 [14]: 240 nM; Kd [15]: < 7 nM

**Q.** Which GI50 [2] does the source give for `C[C@H]1COCCN1c1nc(-c2cnc(N)cc2C(F)F)nc(N2CCOCC2)n1` [PQR530 (16), (S)-4-(Difluoromethyl)-5-(4-(3-methylmorpholino)-6-morpholino-1,3,5-triazin-2-yl)p yridin-2-amine] here?
**A.** ~400 nM
